{
  "source": "patent US6960610B2",
  "about": "“Use of glycogen phosphorylase inhibitors for treatment of cardiovascular diseases” (Novo Nordick, A/S, priority 2002, dated 2005)",
  "key": {"[1]": {"tested_on": "isolated perfused rabbit hearts", "assay": "Ischemia induced arrhythmia in the isolated perfused rabbit heart (Langendorff)", "conditions": "0.4 μg/ml, n=7", "description": "The model evaluates the effect of a test compound on ischemia induced arrhythmia in isolated perfused rabbit hearts. The hearts were excised from rabbits and perfused via an aortic canula in a Langendorff set-up equipped with ECG and MAP electrodes. Global normotherm ischemia was induced by turning off the perfusion for 30 min. After 30 min the heart was reperfused and the total duration of arrhythmia was determined. Furthermore, ECG and surface monophasic action potentials (MAPS) were scored to describe the severity of ischemic damage."}, "[2]": {"tested_on": "Rabbits (myocardial infarct)", "assay": "Anaesthetised rabbit model of myocardial infarction induced by transient coronary artery occlusion", "assay_type": "in vivo", "conditions": "10 mg/kg b.i.d.; left coronary artery ligated 30 min, reperfusion 2 hours", "description": "Method: Rabbits were anaesthetized and mechanically ventilated with oxygen enriched air. A thoracotomy was performed and an infarct was produced by ligating the left coronary artery for 30 min. After 30 min. the heart was reperfused for 2 hours. The heart was excited and reperfused in Langendorff mode. The coronary artery was reoccluded and the heart was perfused with ink to delineate the area at risk. The heart was removed and cut into 2 mm slices and stained with triphenyl tetrazolium chloride. The area at risk and the infarct size was determined by planimetry."}, "heart tissue glycogen": {"tested_on": "heart tissue glycogen", "assay": "Glycogen content of heart tissue following global ischemia", "conditions": "in the presence of 0.4 μg/ml compound", "description": "Method: The glycogen contents of freeze-clamped heart samples were determined enzymatically as μmol of glycosyl units per gram wet weight after boiling the tissue in 0.4 N KOH and subsequent degradation of glycogen with amyloglycosidase"}},
  "data": [
    {"smiles": "OC[C@H]1NC[C@@H](O)[C@@H]1O", "note": "[(2R,3R,4R)-3,4dihydroxy-2-hydroxymethylpyrrolidine]", "values": [
      {"measurement": "MAP score", "setting": "[1]; 30 min global ischemia, reperfusion, without compound 2.3±0.3", "result": "0.9±0.1"},
      {"measurement": "ECG score", "setting": "[1]; 30 min global ischemia, reperfusion, without compound 2.4±0.2", "result": "0.7±0.3"},
      {"measurement": "average arrhythmia length following reperfusion", "setting": "[1]; 30 min global normotherm ischemia, then reperfusion, without compound 18.0±5.6", "result": "0.0 ± 0.0", "unit": "min"},
      {"measurement": "reduction of infarct size compared to untreated rabbits", "setting": "[2]", "result": 45, "unit": "%"},
      {"measurement": "glycogen content before ischemia", "setting": "heart tissue glycogen; starting value", "result": "16.9±1.5 glycosyl units/g wet weight"},
      {"measurement": "glycogen content after 30 min. of global ischemia", "setting": "heart tissue glycogen; without compound 2.6±0.8", "result": "6.9±1.1 glycosyl units/g wet weight"}
    ]}
  ]
}
